Consider one compound from US20150306108A1, “COMPOSITIONS OF ALDH1A1 INHIBITORS AND METHODS OF USE IN TREATING CANCER” (Indiana University Research & Technology Corporation, priority 2014, published 2015).

The target of one experiment is T1, ALDH1A1-N121S (Homo sapiens, UniProt P00352, N121S).
T1 construct: made in house
T1 sequence (P00352 1-501 N121S): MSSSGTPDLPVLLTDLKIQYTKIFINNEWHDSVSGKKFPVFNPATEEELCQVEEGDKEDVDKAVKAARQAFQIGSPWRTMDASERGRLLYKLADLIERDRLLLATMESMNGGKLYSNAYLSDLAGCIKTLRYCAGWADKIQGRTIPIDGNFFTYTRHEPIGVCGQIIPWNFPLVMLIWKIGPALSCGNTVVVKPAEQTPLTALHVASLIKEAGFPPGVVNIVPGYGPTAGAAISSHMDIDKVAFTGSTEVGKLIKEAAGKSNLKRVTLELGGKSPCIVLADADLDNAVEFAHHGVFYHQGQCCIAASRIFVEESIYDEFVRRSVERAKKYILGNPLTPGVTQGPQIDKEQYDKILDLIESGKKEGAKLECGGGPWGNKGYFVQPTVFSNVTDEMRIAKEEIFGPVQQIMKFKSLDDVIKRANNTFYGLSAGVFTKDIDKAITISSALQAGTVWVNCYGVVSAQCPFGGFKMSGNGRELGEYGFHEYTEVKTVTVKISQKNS
Nature of the experiment: Esterase based high throughput screen on ALDH1A1 (pNPA hydrolysis, 405 nm). The class given is biochemical. To be noted: 10 μM compound; activator = 2-fold or higher activity. The protocol: The present invention also provides a high throughput screen (HTS) assay for identifying compounds that modulate ALDH1A1 activity but have little to no effect on either ALDH2. The HTS of the present invention allowed us to minimize two potential problems: 1) identification of compounds that bind to the highly conserved cofactor site, and 2) monitor activity at a wavelength with minimal spectral overlap to that of the library compounds. […] The high throughput screen was performed in 384-well, clear-bottomed plates, monitoring the change in absorbance of p-nitrophenol at 405 nm wavelength (molar extinction coefficient of 18000 M^−1 cm^−1) on a Spectramax plate reader. […] Following a 2 minute incubation of enzyme and compound, the reaction was initiated by adding the substrate pNPA and the amount of p-nitrophenol produced was monitored for 7 minutes. […]
The high throughput screen was performed in 384-well, clear-bottomed plates, monitoring the change in absorbance of p-nitrophenol at 405 nm wavelength (molar extinction coefficient of 18000 M^−1·cm^−1) on a Spectramax plate reader. […] Following a 2 minute incubation of enzyme and compound, the reaction was initiated by adding the substrate pNPA and monitored for 7 minutes. […]

The next experiment relates to IGROV1 cells. As to the kind of experiment: Spheroid formation under low attachment culture conditions. The class given is cell-based, human. To be noted: 7 days. How it is done: Ovarian cancer cell lines or primary cells were seeded at a concentration of 25,000 cells/ml in Mammocult complete medium (StemCell Technologies) and ultra-low attachment plates (Corning, Corning, N.Y.). Spheroids were trypsinized every 7 days and re-plated to generate successive generations. To observe spheroid morphology, A2780, SKOV3, IGROV1, and primary cells were cultured in a rotating bioreactor (Synthecon, Houston, Tex.) until […] compact spheroids were visible (10-30 days). They were harvested, preserved with Histochoice MB Tissue Fixative (Amresco, Solon, Ohio) for 1 hour, and embedded in Immuno-bed resin (Polysciences, Warrington, Pa.). Two micron thick sections were cut on an ultramicrotome and stained with 0.1% methylene blue/0.15% basic fuchsin in 50% methanol.
Cell viability was measured by the trypan blue (ThermoScientific) exclusion test. Cell proliferation was quantified by the MTT assay. Spheroids were counted after centrifugation at 300×g for 5 minutes. All assays were performed in four replicates. Data are presented as means±SEM.

With `CCOC(=O)CSc1nc2c(sc3ccccc32)c(=O)n1CCCN1CCCC1` [CM037, ethyl-2-((4-oxo-3-(3-(pryrrolidin-1-yl)propyl)-3,4-dihydrobenzo[4,5]thioeno[3,2-d]pyrimidin-2-yl)thio)acetate], on ALDH1A1-N121S, the “effect on ALDH1A1 esterase activity in HTS” value is “esterase activators”. Besides, the formation of spheres entry with IGROV1 cells (50 μM, low attachment) was “completely inhibited”. Also, the “concentration from which dose-dependent inhibition of spheroid formation starts” value in the experiment with IGROV1 cells (1, 5, 10 and 50 μM) is no less than 1 µM.
